Measured values published in PubChem BioAssay (NCI).
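Test compounds were applied to cells in 96-well plates for 48 hours at 5 doses. Here, GI50 denotes the concentration required for 50% inhibition of growth. TGI denotes the concentration required for complete inhibition of growth.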

Assays:
Assay in all cases: NCI anticancer screen, dose series, 48 h
786-0 renal = system: 786-0 renal
A498 renal = system: A498 renal
A549 NSCLC = system: A549 NSCLC
ACHN renal = system: ACHN renal
BT-549 breast = system: BT-549 breast
CAKI-1 renal = system: CAKI-1 renal
CCRF-CEM leukemia = system: CCRF-CEM leukemia
COLO 205 colon = system: COLO 205 colon
DU-145 prostate = system: DU-145 prostate
EKVX NSCLC = system: EKVX NSCLC
HCC-2998 colon = system: HCC-2998 colon
HCT-116 colon = system: HCT-116 colon
HCT-15 colon = system: HCT-15 colon
HL-60(TB) leukemia = system: HL-60(TB) leukemia
HOP-62 NSCLC = system: HOP-62 NSCLC
HOP-92 NSCLC = system: HOP-92 NSCLC
HS 578T breast = system: HS 578T breast
HT29 colon = system: HT29 colon
IGROV1 ovarian = system: IGROV1 ovarian
K-562 leukemia = system: K-562 leukemia
KM12 colon = system: KM12 colon
LOX IMVI melanoma = system: LOX IMVI melanoma
M14 melanoma = system: M14 melanoma
MALME-3M melanoma = system: MALME-3M melanoma
MCF7 breast = system: MCF7 breast
MDA-MB-231 breast = system: MDA-MB-231 breast
MDA-MB-435 = system: MDA-MB-435
MOLT-4 leukemia = system: MOLT-4 leukemia
NCI-H226 lung = system: NCI-H226 lung
NCI-H23 lung = system: NCI-H23 lung
NCI-H460 lung = system: NCI-H460 lung
NCI-H522 lung = system: NCI-H522 lung
NCI/ADR-RES ovarian = system: NCI/ADR-RES ovarian
OVCAR-4 ovarian = system: OVCAR-4 ovarian
OVCAR-5 ovarian = system: OVCAR-5 ovarian
OVCAR-8 ovarian = system: OVCAR-8 ovarian
PC-3 prostate = system: PC-3 prostate
RPMI-8226 leukemia = system: RPMI-8226 leukemia
RXF 393 renal = system: RXF 393 renal
SF-268 CNS = system: SF-268 CNS
SF-295 CNS = system: SF-295 CNS
SF-539 CNS = system: SF-539 CNS
SK-MEL-2 melanoma = system: SK-MEL-2 melanoma
SK-MEL-28 melanoma = system: SK-MEL-28 melanoma
SK-MEL-5 melanoma = system: SK-MEL-5 melanoma
SK-OV-3 ovarian = system: SK-OV-3 ovarian
SN12C renal = system: SN12C renal
SNB-19 CNS = system: SNB-19 CNS
SNB-75 CNS = system: SNB-75 CNS
SR leukemia = system: SR leukemia
SW-620 colon = system: SW-620 colon
T-47D breast = system: T-47D breast
TK-10 renal = system: TK-10 renal
U251 CNS = system: U251 CNS
UACC-257 melanoma = system: UACC-257 melanoma
UACC-62 melanoma = system: UACC-62 melanoma
UO-31 renal = system: UO-31 renal

`C#Cc1ccc(C(=O)NCc2ccc(/C=C/C(=O)c3nccn3C)cc2)cc1` was tested, and the GI50 (786-0 renal) was 4.48 µM, the TGI (786-0 renal) was > 14.3 µM and the GI50 (A498 renal) was 2120 nM. For the same compound, the TGI (A498 renal) was > 14.3 µM, the GI50 (A549 NSCLC) was 4.6 µM and the TGI (A549 NSCLC) was > 14.3 µM. The GI50 (ACHN renal) was 4.8 µM, the TGI (ACHN renal) was > 14.3 µM and the GI50 (BT-549 breast) was 4.06 µM. The TGI (BT-549 breast) was > 14.3 µM, the GI50 (CAKI-1 renal) was 5.97 µM and the TGI (CAKI-1 renal) was > 14.3 µM. The GI50 (CCRF-CEM leukemia) was 3.68 µM, the TGI (CCRF-CEM leukemia) was > 14.3 µM and the GI50 (COLO 205 colon) was 3.6 µM. The TGI (COLO 205 colon) was 12.7 µM, the GI50 (DU-145 prostate) was 4.83 µM and the TGI (DU-145 prostate) was > 14.3 µM. For the same compound, the GI50 (EKVX NSCLC) was 5.22 µM, the TGI (EKVX NSCLC) was > 14.3 µM and the GI50 (HCC-2998 colon) was 3.32 µM. The TGI (HCC-2998 colon) was 10.7 µM, the GI50 (HCT-116 colon) was 4.56 µM and the TGI (HCT-116 colon) was > 14.3 µM. For the same compound, the GI50 (HCT-15 colon) was 2390 nM, the TGI (HCT-15 colon) was > 14.3 µM and the GI50 (HL-60(TB) leukemia) was 3.5 µM. The TGI (HL-60(TB) leukemia) was > 14.3 µM, the GI50 (HOP-62 NSCLC) was 4.33 µM and the TGI (HOP-62 NSCLC) was > 14.3 µM. For the same compound, the GI50 (HOP-92 NSCLC) was 3.77 µM, the TGI (HOP-92 NSCLC) was > 14.3 µM and the GI50 (HS 578T breast) was 4.75 µM. The TGI (HS 578T breast) was > 14.3 µM, the GI50 (HT29 colon) was 4.61 µM and the TGI (HT29 colon) was > 14.3 µM. For the same compound, the GI50 (IGROV1 ovarian) was 3.77 µM, the TGI (IGROV1 ovarian) was > 14.3 µM and the GI50 (K-562 leukemia) was 3.21 µM. For the same compound, the TGI (K-562 leukemia) was > 14.3 µM, the GI50 (KM12 colon) was 2670 nM and the TGI (KM12 colon) was 8.57 µM. For the same compound, the GI50 (LOX IMVI melanoma) was 543 nM, the TGI (LOX IMVI melanoma) was 2400 nM and the GI50 (M14 melanoma) was 7.91 µM. For the same compound, the TGI (M14 melanoma) was > 14.3 µM, the GI50 (MALME-3M melanoma) was > 14.3 µM and the TGI (MALME-3M melanoma) was > 14.3 µM. For the same compound, the GI50 (MCF7 breast) was 2700 nM, the TGI (MCF7 breast) was > 14.3 µM and the GI50 (MDA-MB-231 breast) was 3.97 µM. The TGI (MDA-MB-231 breast) was > 14.3 µM, the GI50 (MDA-MB-435) was 4.15 µM and the TGI (MDA-MB-435) was > 14.3 µM. The GI50 (MOLT-4 leukemia) was 4.2 µM, the TGI (MOLT-4 leukemia) was > 14.3 µM and the GI50 (NCI-H226 lung) was 5.03 µM. For the same compound, the TGI (NCI-H226 lung) was > 14.3 µM, the GI50 (NCI-H23 lung) was 3.48 µM and the TGI (NCI-H23 lung) was > 14.3 µM. The GI50 (NCI-H460 lung) was 3.24 µM, the TGI (NCI-H460 lung) was 9.03 µM and the GI50 (NCI-H522 lung) was 6.16 µM. The TGI (NCI-H522 lung) was > 14.3 µM, the GI50 (NCI/ADR-RES ovarian) was 3.67 µM and the TGI (NCI/ADR-RES ovarian) was > 14.3 µM. For the same compound, the GI50 (OVCAR-4 ovarian) was 5.71 µM, the TGI (OVCAR-4 ovarian) was > 14.3 µM and the GI50 (OVCAR-5 ovarian) was 4.75 µM. The TGI (OVCAR-5 ovarian) was > 14.3 µM, the GI50 (OVCAR-8 ovarian) was 3.11 µM and the TGI (OVCAR-8 ovarian) was 8.27 µM. The GI50 (PC-3 prostate) was 5.36 µM, the TGI (PC-3 prostate) was > 14.3 µM and the GI50 (RPMI-8226 leukemia) was 2370 nM. The TGI (RPMI-8226 leukemia) was > 14.3 µM, the GI50 (RXF 393 renal) was 3.44 µM and the TGI (RXF 393 renal) was 14.2 µM. For the same compound, the GI50 (SF-268 CNS) was 3.36 µM, the TGI (SF-268 CNS) was 12.2 µM and the GI50 (SF-295 CNS) was 3.65 µM. For the same compound, the TGI (SF-295 CNS) was 13.2 µM, the GI50 (SF-539 CNS) was 2650 nM and the TGI (SF-539 CNS) was 6.24 µM. For the same compound, the GI50 (SK-MEL-2 melanoma) was > 14.3 µM, the TGI (SK-MEL-2 melanoma) was > 14.3 µM and the GI50 (SK-MEL-28 melanoma) was 6.16 µM. The TGI (SK-MEL-28 melanoma) was > 14.3 µM, the GI50 (SK-MEL-5 melanoma) was > 14.3 µM and the TGI (SK-MEL-5 melanoma) was > 14.3 µM. The GI50 (SK-OV-3 ovarian) was 8.34 µM, the TGI (SK-OV-3 ovarian) was > 14.3 µM and the GI50 (SN12C renal) was 4.34 µM. For the same compound, the TGI (SN12C renal) was > 14.3 µM, the GI50 (SNB-19 CNS) was 3.1 µM and the TGI (SNB-19 CNS) was > 14.3 µM. For the same compound, the GI50 (SNB-75 CNS) was 2190 nM, the TGI (SNB-75 CNS) was 10.7 µM and the GI50 (SR leukemia) was 930 nM. For the same compound, the TGI (SR leukemia) was > 14.3 µM, the GI50 (SW-620 colon) was 4.31 µM and the TGI (SW-620 colon) was > 14.3 µM. The GI50 (T-47D breast) was 6 µM, the TGI (T-47D breast) was > 14.3 µM and the GI50 (TK-10 renal) was 5.42 µM. For the same compound, the TGI (TK-10 renal) was > 14.3 µM, the GI50 (U251 CNS) was 2150 nM and the TGI (U251 CNS) was > 14.3 µM. The GI50 (UACC-257 melanoma) was > 14.3 µM, the TGI (UACC-257 melanoma) was > 14.3 µM and the GI50 (UACC-62 melanoma) was 6.27 µM. The TGI (UACC-62 melanoma) was > 14.3 µM, the GI50 (UO-31 renal) was 3.91 µM and the TGI (UO-31 renal) was > 14.3 µM.
